Biological target: NR1/NR2B (Homo sapiens (Human), UniProt Q05586+Q13224)
Assay: Cell assay: FDSS Ca2+ influx inhibition in HEK293 cells expressing NR1/NR2B;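 note: Fluo-8 Ca2+ signal read on Hamamatsu FDSS 6000 after glutamate, glycine and Ca2+ challenge following 10 min compound preincubation, end/baseline fluorescence ratio compared with MK801 control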
[1] = NR2B NAM IC50, HEK293 cells expressing NR1/NR2B, Ca2+ influx
[2] = Binned Activity, HEK293 cells expressing NR1/NR2B, Ca2+ influx, binned NR2B NAM IC50

NR1/NR2B, sequence (Q13224 27-1484, other chains not shown): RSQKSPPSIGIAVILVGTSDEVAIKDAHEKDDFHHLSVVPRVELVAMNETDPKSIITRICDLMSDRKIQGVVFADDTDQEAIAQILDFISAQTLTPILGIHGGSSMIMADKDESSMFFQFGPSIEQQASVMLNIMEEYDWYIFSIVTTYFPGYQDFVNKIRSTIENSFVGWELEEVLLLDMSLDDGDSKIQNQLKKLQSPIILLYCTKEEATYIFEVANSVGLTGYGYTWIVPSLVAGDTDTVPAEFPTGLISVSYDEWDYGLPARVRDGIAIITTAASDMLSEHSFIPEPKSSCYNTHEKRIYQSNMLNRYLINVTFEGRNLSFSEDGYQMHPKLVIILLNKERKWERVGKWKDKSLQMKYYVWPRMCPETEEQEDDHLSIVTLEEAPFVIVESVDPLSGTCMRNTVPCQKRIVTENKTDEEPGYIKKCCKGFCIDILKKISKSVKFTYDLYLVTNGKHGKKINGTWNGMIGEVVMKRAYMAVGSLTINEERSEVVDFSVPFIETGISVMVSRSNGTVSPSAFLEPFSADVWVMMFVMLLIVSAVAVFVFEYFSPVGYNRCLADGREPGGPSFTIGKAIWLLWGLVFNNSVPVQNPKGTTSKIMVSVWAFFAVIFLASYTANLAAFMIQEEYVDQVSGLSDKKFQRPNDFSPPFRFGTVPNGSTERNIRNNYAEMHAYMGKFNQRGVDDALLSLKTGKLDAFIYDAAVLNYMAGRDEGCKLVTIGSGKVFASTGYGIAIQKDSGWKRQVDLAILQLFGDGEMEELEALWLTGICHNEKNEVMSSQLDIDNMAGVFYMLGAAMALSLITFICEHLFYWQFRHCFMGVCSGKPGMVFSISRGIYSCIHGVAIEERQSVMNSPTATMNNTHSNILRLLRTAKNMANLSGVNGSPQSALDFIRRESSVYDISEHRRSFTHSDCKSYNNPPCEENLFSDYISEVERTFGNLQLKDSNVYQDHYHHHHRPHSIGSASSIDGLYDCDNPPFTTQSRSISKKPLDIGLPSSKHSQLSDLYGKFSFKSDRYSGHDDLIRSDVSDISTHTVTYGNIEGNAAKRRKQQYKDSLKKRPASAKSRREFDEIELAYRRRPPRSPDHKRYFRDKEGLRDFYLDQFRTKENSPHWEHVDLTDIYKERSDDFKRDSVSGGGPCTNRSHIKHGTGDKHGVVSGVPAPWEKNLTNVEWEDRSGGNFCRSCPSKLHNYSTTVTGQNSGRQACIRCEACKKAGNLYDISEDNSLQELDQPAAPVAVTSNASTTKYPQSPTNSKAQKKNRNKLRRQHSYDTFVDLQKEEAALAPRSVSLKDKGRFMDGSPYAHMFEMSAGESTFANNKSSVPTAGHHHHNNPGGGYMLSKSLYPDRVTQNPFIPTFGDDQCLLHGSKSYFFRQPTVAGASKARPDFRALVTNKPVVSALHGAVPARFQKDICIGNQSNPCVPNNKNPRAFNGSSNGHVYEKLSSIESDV

Structure (SMILES)	IC50 [1]	IC50 [2]	IC50 (Binned Activity)	IC50 (NR2B NAM IC50)
Oc1ccc(C(O)CN2C[C@@H]3C[C@@](O)(Cc4ccc(F)cc4)C[C@@H]3C2)nc1 (mixture of isomers) [Example 168, rac-(3aR,5r,6aS)-5-(4-fluorobenzy)-2-(2-hydroxy-2-(5-hydroxypyridin-2-yl)ethyl)octahydrocyclo-penta[c]pyrrol-5-ol]	17.8 nM	–	–	–
COc1cccc(C(O)CN2C[C@H]3C[C@@H](c4ccccc4)C[C@H]3C2)c1 (mixture of isomers) [Example 117, rac-1-(3-methoxyphenyl)-2-{5-phenyl-octahydrocyclopenta[c]pyrrol-2-yl}ethan-1-ol]	≥ 10000 nM	> 10000 nM	–	–
Oc1ccc(C(O)CN2C[C@@H]3C[C@@](O)(Cc4cccs4)C[C@@H]3C2)cc1F (mixture of isomers) [Example 222, rac-2-(2-(3-fluoro-4-hydroxyphenyl)-2-hydroxyethyl)-5-(thiophen-2-ylmethyl)octahydrocyclo-penta[c]pyrrol-5-ol]	19.3 nM	< 100 nM	–	–
Oc1ccc(C(O)CN2C[C@@H]3C[C@@](O)(Cc4ccccc4Cl)C[C@@H]3C2)nc1 (mixture of isomers) [Example 246, rac-(3aR,5r,6aS)-5-(2-chlorobenzyl)-2-(2-hydroxy-2-(5-hydroxypyridin-2-yl)ethyl)octahydrocyclo-penta[c]pyrrol-5-ol]	50.3 nM	–	–	–
Cc1cc(C)cc(C[C@]2(O)C[C@H]3CN(CC(O)c4ccc(O)cn4)C[C@H]3C2)c1 (mixture of isomers) [Example 208, rac-6-{2-[(3aR,5R,6aS)-5-[(3,5-dimethylphenyl)methyl]-5-hydroxy-octahydrocyclopenta[c]pyrrol-2-yl]-1-hydroxyethyl}pyridin-3-ol-3-ol]	666 nM	–	–	–
O=C(Nc1cccc(C(F)(F)F)c1)N1C[C@@H]2C[C@@](O)(c3ccc(F)cc3)C[C@@H]2C1 [Example 38]	≥ 10000 nM	> 10000 nM	–	–
O=C1Cc2cc(C(O)CN3C[C@@H]4C[C@@](O)(Cc5ccccc5)C[C@@H]4C3)ccc2N1 (mixture of isomers) [Example 152, rac-5-(2-((3aR,5r,6aS)-5-benzyl-5-hydroxyhexahydrocyclo-penta[c]pyrrol-2(1H)-yl)-1-hydroxyethyl)indolin-2-one]	143 nM	–	–	–
CC(C(=O)c1ccc(O)cc1)N1C[C@H]2CC(CCc3ccccc3)C[C@H]2C1 (mixture of isomers) [Example 322, rac-1-(4-hydroxy-phenyl)2-[(5R)-5-(2-phenylethyl)-octahydrocyclopenta[c]pyrrol-2-yl]propan-1-one]	–	–	100 to 1000 nM	533 nM
COc1cccc(C[C@]2(O)C[C@H]3CN(CC(O)c4ccc(O)cc4)C[C@H]3C2)c1 (mixture of isomers) [Example 195, rac-(3aR,5r,6aS)-2-(2-hydroxy-2-(4-hydroxyphenyl)ethyl)-5-(3-methoxy-benzyl)octahydro-cyclopenta[c]pyrrol-5-ol]	28.7 nM	–	–	–
Oc1ccc(C(O)CN2C[C@@H]3C[C@@](O)(Cc4ccc(Cl)cc4)C[C@@H]3C2)nc1 (mixture of isomers) [Example 223, rac-(3aR,5r,6aS)-5-(4-chlorobenzyl)-2-(2-hydroxy-2-(5-hydroxypyridin-2-yl)ethyl)octahydrocyclo-penta[c]pyrrol-5-ol]	11.5 nM	< 100 nM	–	–
OC(CN1C[C@@H]2C[C@@](O)(Cc3ccccc3)C[C@@H]2C1)c1cnc(OCc2ccccc2)cn1 (mixture of isomers) [Example 163, rac-(3aR,5r,6aS)-5-benzyl-2-(2-(5-(benzyloxy)pyrazin-2-yl)-2-hydroxyethyl)octahydro-cyclopenta[c]pyrrol-5-ol]	≥ 10000 nM	> 10000 nM	–	–
Oc1ccc(C(O)CN2C[C@H]3CC(Cc4ccccc4)C[C@H]3C2)nc1 (mixture of isomers) [Example 298, rac-6-(2-{5-benzyl-octahydrocyclopenta[c]pyrrol-2-yl}-1-hydroxyethyl)pyridin-3-ol]	22.4 nM	–	–	–
Cc1cc(F)ccc1C[C@]1(O)C[C@H]2CN(CC(O)c3ccc(O)cc3)C[C@H]2C1 (mixture of isomers) [Example 254, rac-(3aR,5r,6aS)-5-(4-fluoro-2-methylbenzyl)-2-(2-hydroxy-2-(4-hydroxyphenyl)ethyl) octahydrocyclopenta[c] pyrrol-5-ol]	42.5 nM	–	–	–
O=C(Nc1cccnc1)N1C[C@@H]2C[C@@](O)(c3ccc(F)cc3)C[C@@H]2C1 [Example 41]	≥ 10000 nM	> 10000 nM	–	–
OC(CN1C[C@@H]2C[C@@](O)(c3ccc(F)cc3)C[C@@H]2C1)c1cccc(C(F)(F)F)c1 (mixture of isomers) [Example 75, rac-5-(4-fluorophenyl)-2-{2-hydroxy-2-[3-(trifluoromethyl)phenyl]ethyl}-octahydrocyclopenta[c] pyrrol-5-ol]	≥ 10000 nM	> 10000 nM	–	–
O=C1CCc2cc(C(O)CN3C[C@@H]4C[C@@](O)(Cc5ccccc5)C[C@@H]4C3)ccc2N1 (mixture of isomers) [Example 153, rac-6-(2-((3aR,5r,6aS)-5-benzyl-5-hydroxyhexahydrocyclo-penta[c]pyrrol-2(1H)-yl)-1-hydroxyethyl)-3,4-dihydroquinolin-2(1H)-one]	40.2 nM	–	–	–
Oc1ccc(C(O)CN2C[C@@H]3C[C@@](O)(Cc4ccncc4)C[C@@H]3C2)cc1 (mixture of isomers) [Example 227, rac-(3aR,5r,6aS)-2-(2-hydroxy-2-(4-hydroxyphenyl)ethyl)-5-(pyridin-4-ylmethyl)octahydrocyclo-penta[c]pyrrol-5-ol]	3150 nM	–	–	–

Structure (SMILES)	IC50 [1]	IC50 [2]	IC50 (Binned Activity)	IC50 (NR2B NAM IC50)
COc1cccc([C@]2(O)C[C@H]3CN(C(=O)Nc4ccc(C)cc4C)C[C@H]3C2)c1 [Example 49]	≥ 10000 nM	> 10000 nM	–	–
OC(CN1C[C@@H]2C[C@@](O)(c3ccccc3)C[C@@H]2C1)c1cccc(F)c1 (mixture of isomers) [Example 64, rac-2-[2-(3-fluorophenyl)-2-hydroxyethyl]-5-phenyl-octahydrocyclopenta[c] pyrrol-5-ol]	≥ 10000 nM	> 10000 nM	–	–
COc1cccc([C@]2(O)C[C@H]3CN(C(=O)Nc4cccnc4)C[C@H]3C2)c1 [Cmpd 46, 5-hydroxy-5-(3-methoxyphenyl)-N-(pyridin-3-yl)-octahydrocyclopenta[c] pyrrole-2-carboxamide]	–	> 10000 nM	–	–
Oc1ccc(C(O)CN2C[C@@H]3C[C@@](O)(Cc4c(F)cccc4F)C[C@@H]3C2)nc1 (mixture of isomers) [Example 240, rac-6-{2-[(3aR,5R,6aS)-5-[(2,6-difluorophenyl)methyl]-5-hydroxy-octahydrocyclopenta[c]pyrrol-2-yl]-1-hydroxyethyl}pyridin-3-ol]	69.6 nM	–	–	–
CC(C(=O)c1ccc(O)cc1)N1C[C@@H]2C[C@@](O)(c3ccc(F)cc3)C[C@@H]2C1 (mixture of isomers) [Example 92, rac-2-[5-(4-fluorophenyl)-5-hydroxy-octahydrocyclopenta[c]pyrrol-2-yl]-1-(4-hydroxyphenyl)propan-1-one]	≥ 10000 nM	> 10000 nM	–	–
Cc1ccccc1[C@]1(O)C[C@H]2CN(C(=O)Nc3ccc(F)cc3)C[C@H]2C1 [Example 13]	≥ 10000 nM	> 10000 nM	–	–
Oc1cnc(C(O)CN2C[C@@H]3C[C@@](O)(Cc4ccccc4)C[C@@H]3C2)nc1 (mixture of isomers) [Example 203, rac-2-{2-[(3aR,5R,6aS)-5-benzyl-5-hydroxy-octahydrocyclopenta[c]pyrrol-2-yl]-1-hydroxyethyl}pyrimidin-5-ol]	3400 nM	1000 to 10000 nM	–	–
CC(C(=O)c1ccc(O)cc1)N1C[C@@H]2C[C@@](O)(CCc3ccccc3)C[C@@H]2C1 (mixture of isomers) [Example 319, rac-2-(5-hydroxy-5-phenethylhexa-hydrocyclo-penta[c]pyrrol-2(1H)-yl)-1-(4-hydroxyphenyl)propan-1-one]	497 nM	–	–	–
CC(C)(O)c1ccc(C(O)CN2C[C@@H]3C[C@@](O)(c4ccccc4)C[C@@H]3C2)cc1 (mixture of isomers) [Example 69, rac-2-(2-hydroxy-2-(4-(2-hydroxypropan-2-yl)phenyl)ethyl)-5-phenyloctahydrocyclo-penta[c]pyrrol-5-ol]	≥ 10000 nM	> 10000 nM	–	–
COc1cccc(NC(=O)N2C[C@@H]3C[C@@](O)(c4ccc(F)cc4)C[C@@H]3C2)c1 [Example 37]	–	> 10000 nM	–	–
COc1cccc(NC(=O)N2C[C@@H]3C[C@@](O)(c4ccccc4C)C[C@@H]3C2)c1	≥ 10000 nM	> 10000 nM	–	–
CC(C)(O)c1ccc(C(=O)CN2C[C@@H]3C[C@@](O)(c4ccccc4)C[C@@H]3C2)cc1 [Example 68, 2-(5-hydroxy-5-phenylhexahydrocyclo-penta[c]pyrrol-2(1H)-yl)-2-(4-(2-hydroxypropan-2-yl)phenyl)ethanone]	–	> 10000 nM	–	–
CC(C(=O)c1ccc(O)cc1)N1C[C@@H]2C[C@@](O)(Cc3ccccc3)C[C@@H]2C1 (mixture of isomers) [Example 293, rac-2-((3aR,5r,6aS)-5-benzyl-5-hydroxyhexahydrocyclo-penta[c]pyrrol-2(1H)-yl)-1-(4-hydroxyphenyl)propan-1-one]	100 nM	–	–	–
Oc1c(F)cc(C(O)CN2C[C@@H]3C[C@@](O)(Cc4ccccc4)C[C@@H]3C2)cc1F (mixture of isomers) [Example 160, rac-(3aR,5r,6aS)-5-benzyl-2-(2-(3,5-difluoro-4-hydroxyphenyl)-2-hydroxyethyl)octahydro-cyclopenta[c]pyrrol-5-ol]	98.1 nM	–	–	–
COc1cccc([C@]2(O)C[C@H]3CN(CC(O)c4ccccc4)C[C@H]3C2)c1 (mixture of isomers) [Example 60, rac-2-(2-hydroxy-2-phenylethyl)-5-(3-methoxyphenyl)-octahydrocyclopenta[c] pyrrol-5-ol]	≥ 10000 nM	> 10000 nM	–	–
Cc1cc(F)ccc1C[C@]1(O)C[C@H]2CN(CC(O)c3ccc(O)cn3)C[C@H]2C1 (mixture of isomers) [Example 243, rac-(3aR,5r,6aS)-5-(4-fluoro-2-methylbenzyl)-2-(2-hydroxy-2-(5-hydroxypyridin-2-yl)ethyl)octahydrocyclo-penta[c]pyrrol-5-ol]	75.7 nM	–	–	–
Oc1ccc(C(O)CN2CC3(C2)CC(O)(Cc2ccccc2)C3)cc1 (racemic) [Example 343, rac-6-benzyl-2-(2-hydroxy-2-(4-hydroxyphenyl)ethyl)-2-azaspiro[3.3]heptan-6-ol]	506 nM	–	–	–

From patent publication US10052306B2 (LUC THERAPEUTICS, INC., priority 2013, dated 2018)
